The record followed here is paper PMC6539891, “Indole-Based Hydrazones Containing A Sulfonamide Moiety as Selective Inhibitors of Tumor-Associated Human Carbonic Anhydrase Isoforms IX and XII” (International Journal of Molecular Sciences, 2019).

One assay deals with T1, hCA IX (Homo sapiens, UniProt Q16790).
T1 construct: gene CA9; recombinant from E. coli; transmembrane isoform with extracellular catalytic domain
In words: stopped-flow CO2 hydration assay. The following applies: read-out: KI^* (nM) / hCAIX. The format is biochemical. An excerpt: stopped-flow CO2 hydration assay on hCA IX

In another assay the target is T2, hCA I (Homo sapiens, UniProt P00915).
T2 construct: gene CA1; recombinant from E. coli; cytosolic isoform
T2 sequence (P00915 2-261): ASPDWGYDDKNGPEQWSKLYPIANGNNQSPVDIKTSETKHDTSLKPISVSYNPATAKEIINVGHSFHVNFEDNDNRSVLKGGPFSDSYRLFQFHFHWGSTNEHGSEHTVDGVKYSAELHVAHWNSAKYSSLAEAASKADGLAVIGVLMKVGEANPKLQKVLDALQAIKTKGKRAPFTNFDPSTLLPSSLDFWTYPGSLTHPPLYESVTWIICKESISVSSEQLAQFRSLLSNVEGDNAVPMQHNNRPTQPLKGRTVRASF
In words: stopped-flow CO2 hydration assay. The format is biochemical. An excerpt: stopped-flow CO2 hydration assay on hCA I

The target in the next assay is T3, hCA XII (Homo sapiens, UniProt O43570).
T3 construct: gene CA12; recombinant from E. coli; transmembrane isoform with extracellular catalytic domain
T3 sequence (O43570 30-289 limits assumed): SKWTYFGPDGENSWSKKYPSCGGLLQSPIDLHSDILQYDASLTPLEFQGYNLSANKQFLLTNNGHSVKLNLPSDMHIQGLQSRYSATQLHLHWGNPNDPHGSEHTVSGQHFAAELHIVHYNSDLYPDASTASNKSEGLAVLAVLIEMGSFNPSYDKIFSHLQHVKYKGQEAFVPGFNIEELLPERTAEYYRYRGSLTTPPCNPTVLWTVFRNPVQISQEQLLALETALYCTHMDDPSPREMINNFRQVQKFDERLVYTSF
Put plainly: stopped-flow CO2 hydration assay. The format is biochemical. The source says: stopped-flow CO2 hydration assay on hCA XII

In the next assay the target is T4, hCA II (Homo sapiens, UniProt P00918).
T4 construct: gene CA2; recombinant from E. coli; cytosolic isoform
Put plainly: stopped-flow CO2 hydration assay. The format is biochemical. The source says:
stopped-flow CO2 hydration assay on hCA II

Assay [1] is described as follows: stopped-flow CO2 hydration assay. The format is biochemical, Homo sapiens. The following applies: read-out: KI^* (nM) / hCA I.

With `NS(=O)(=O)c1ccc2[nH]c(C(=O)NN=C3CCN(Cc4ccccc4)CC3)c(-c3ccccc3)c2c1` [compound 24, 2-{[2-(1-Benzylpiperidine-4-ylidene)hydrazinyl]carbonyl}-3-phenyl-1H-indole-5-sulfonamide], the Ki at hCA IX was 11.7 nM; on hCA I it was 7380 nM; at hCA XII it was 9.4 nM; on hCA II, 372 nM.

On to `CC(C)(C)C1CCC(=NNC(=O)c2[nH]c3ccc(S(N)(=O)=O)cc3c2-c2ccccc2)CC1` (stereo not drawn) [compound 22, 2-{[2-(4-tert-buthylcyclohexylidene)hydrazinyl]carbonyl}-3-phenyl-1H-indole-5-sulfonamide], for which the Ki at hCA IX was 17.4 nM; at hCA I, greater than 10000 nM; on hCA XII, 26.6 nM; at hCA II it was 3380 nM.

For the molecule `CC1CCC(=NNC(=O)c2[nH]c3ccc(S(N)(=O)=O)cc3c2-c2ccccc2)CC1` (stereo not drawn) [compound 18, 2-{[2-(4-Methylcyclohexylidene)hydrazinyl]carbonyl}-3-phenyl-1H-indole-5-sulfonamide], the Ki was 419 nM at hCA IX, greater than 10000 nM on hCA I, 139 nM on hCA XII and 8940 nM at hCA II.

As to `CCC(C)=NNC(=O)c1[nH]c2ccc(S(N)(=O)=O)cc2c1-c1ccccc1` [compound 13, 2-{[2-(Butan-2-ylidene)hydrazinyl]carbonyl}-3-phenyl-1H-indole-5-sulfonamide], the Ki on hCA IX worked out at 42.1 nM; at hCA I, 9620 nM; on hCA XII, 92.4 nM; at hCA II it was 8030 nM.

Take `CN1CCC(=NNC(=O)c2[nH]c3ccc(S(N)(=O)=O)cc3c2-c2ccccc2)CC1` [compound 23, 2-{[2-(1-Methylpiperidine-4-ylidene)hydrazinyl]carbonyl}-3-phenyl-1H-indole-5-sulfonamide]: the Ki is 9.2 nM on hCA IX, greater than 10000 nM at hCA I, 62.9 nM on hCA XII and 309 nM on hCA II.

In the case of `CCC(CC)=NNC(=O)c1[nH]c2ccc(S(N)(=O)=O)cc2c1-c1ccccc1` [compound 14, 2-{[2-(Pentan-3-ylidene)hydrazinyl]carbonyl}-3-phenyl-1H-indole-5-sulfonamide], the Ki turned out to be 43.7 nM on hCA IX, 9250 nM on hCA I, 9.4 nM at hCA XII and 6620 nM at hCA II.

In the case of `NS(=O)(=O)c1ccc2[nH]c(C(=O)NN=Cc3c[nH]c4ccccc34)c(-c3ccccc3)c2c1` [compound 9, 3-Phenyl-2-{[2-(1H-indole-3-ylmethylidene)hydrazinyl]carbonyl}-1H-indole-5-sulfonamide], the Ki at hCA IX is 207 nM; in assay [1], greater than 10000 nM; on hCA I it was greater than 10000 nM; on hCA XII it was 77.3 nM.

In the case of `NS(=O)(=O)c1ccc2[nH]c(C(=O)NN=Cc3ccc(Br)s3)c(-c3ccccc3)c2c1` [compound 5, 2-({2-[(5-Bromothiophene-2-yl)methylidene]hydrazinyl}carbonyl)-3-phenyl-1H-indole-5-sulfonamide], the Ki on hCA IX is 48.4 nM; at hCA I, 9410 nM; at hCA XII it was 75.1 nM; on hCA II, greater than 10000 nM.

Take `NS(=O)(=O)c1ccc2[nH]c(C(=O)NN=C3CCCCC3)c(-c3ccccc3)c2c1` [compound 17, 2-[(2-Cyclohexylidenehydrazinyl)carbonyl]-3-phenyl-1H-indole-5-sulfonamide]: the Ki was 191 nM at hCA IX, greater than 10000 nM on hCA I, 86.2 nM on hCA XII and 5870 nM on hCA II.

For `NS(=O)(=O)c1ccc2[nH]c(C(=O)NN=C3CCC(c4ccccc4)CC3)c(-c3ccccc3)c2c1` (stereo not drawn) [compound 21, 2-{[2-(4-Phenylcyclohexylidene)hydrazinyl]carbonyl}-3-phenyl-1H-indole-5-sulfonamide], the Ki at hCA IX was 32.3 nM; at hCA I, greater than 10000 nM; at hCA XII, 14.8 nM; at hCA II, 831 nM.

Regarding `CC(C)=NNC(=O)c1[nH]c2ccc(S(N)(=O)=O)cc2c1-c1ccccc1` [compound 12, 3-Phenyl-2-{[2-(propan-2-ylidene)hydrazinyl]carbonyl}-1H-indole-5-sulfonamide], the Ki on hCA IX was determined as 47.9 nM; on hCA I, 9560 nM; at hCA XII it was 87.9 nM; on hCA II, 8500 nM.

With `CCCC1CCC(=NNC(=O)c2[nH]c3ccc(S(N)(=O)=O)cc3c2-c2ccccc2)CC1` (stereo not drawn) [compound 20, 2-{[2-(4-Propylcyclohexylidene)hydrazinyl]carbonyl}-3-phenyl-1H-indole-5-sulfonamide], the Ki at hCA IX is 348 nM; on hCA I, greater than 10000 nM; at hCA XII, 154 nM; on hCA II, 796 nM.

With `Cn1cccc1C=NNC(=O)c1[nH]c2ccc(S(N)(=O)=O)cc2c1-c1ccccc1` [compound 6, 2-({2-[(1-Methyl-1H-pyrrol-2-yl)methylidene]hydrazinyl}carbonyl)-3-phenyl-1H-indole-5-sulfonamide], the Ki at hCA IX is 44.3 nM; on hCA I, 9570 nM; at hCA XII it was 64.4 nM; at hCA II, greater than 10000 nM.

On to `C=NNC(=O)c1[nH]c2ccc(S(N)(=O)=O)cc2c1-c1ccccc1` [compound 10, 2-[(2-Methylidenehydrazinyl)carbonyl]-3-phenyl-1H-indole-5-sulfonamide], for which the Ki at hCA IX came to 32.9 nM; on hCA I, 7480 nM; at hCA XII, 23.8 nM; on hCA II, 9370 nM.

`CC=NNC(=O)c1[nH]c2ccc(S(N)(=O)=O)cc2c1-c1ccccc1` [compound 11, 2-[(2-Ethylidenehydrazinyl)carbonyl]-3-phenyl-1H-indole-5-sulfonamide]: the Ki on hCA IX amounted to 12.9 nM; on hCA I, 4060 nM; on hCA XII, 62.6 nM; at hCA II, 5870 nM.

Regarding `NS(=O)(=O)c1ccc2[nH]c(C(=O)NN=C3CCCC3)c(-c3ccccc3)c2c1` [compound 16, 2-[(2-Cyclopentylidenehydrazinyl)carbonyl]-3-phenyl-1H-indole-5-sulfonamide], the Ki on hCA IX was 476 nM; at hCA I, greater than 10000 nM; on hCA XII it was 97.2 nM; on hCA II, 5960 nM.

Regarding `NS(=O)(=O)c1ccc2[nH]c(C(=O)NN=Cc3cccs3)c(-c3ccccc3)c2c1` [compound 4, 3-Phenyl-2-{[2-(thiophene-2-ylmethylidene)hydrazinyl]carbonyl}-1H-indole-5-sulfonamide], the Ki on hCA IX is 47.4 nM; on hCA I, 6670 nM; on hCA XII, 4.5 nM; on hCA II, greater than 10000 nM.

With `CCC1CCC(=NNC(=O)c2[nH]c3ccc(S(N)(=O)=O)cc3c2-c2ccccc2)CC1` (stereo not drawn) [compound 19, 2-{[2-(4-Ethylcyclohexylidene)hydrazinyl]carbonyl}-3-phenyl-1H-indole-5-sulfonamide], the Ki was 475 nM at hCA IX, greater than 10000 nM on hCA I, 220 nM on hCA XII and 1280 nM on hCA II.

Take `CC(CC(C)C)=NNC(=O)c1[nH]c2ccc(S(N)(=O)=O)cc2c1-c1ccccc1` [compound 15, 2-{[2-(4-Methylpentan-2-ylidene)hydrazinyl]carbonyl}-3-phenyl-1H-indole-5-sulfonamide]: the Ki at hCA IX amounted to 188 nM; on hCA I, 8650 nM; at hCA XII it was 27.9 nM; at hCA II it was 6560 nM.

Turning to `NS(=O)(=O)c1ccc2[nH]c(C(=O)NN=Cc3ccncc3)c(-c3ccccc3)c2c1` [compound 8, 3-Phenyl-2-{[2-(pyridine-4-ylmethylidene)hydrazinyl]carbonyl}-1H-indole-5-sulfonamide], the Ki on hCA IX stood at 15.8 nM; at hCA I it was 3130 nM; at hCA XII, 6.6 nM; on hCA II, 3490 nM.

For `NS(=O)(=O)c1ccc2[nH]c(C(=O)NN=Cc3cccnc3)c(-c3ccccc3)c2c1` [compound 7, 3-Phenyl-2-{[2-(pyridine-3-ylmethylidene)hydrazinyl]carbonyl}-1H-indole-5-sulfonamide], the Ki on hCA IX was determined as 35.8 nM; on hCA I it was 8590 nM; at hCA XII it was 1.4 nM; on hCA II, 8910 nM.
